Measured values as given in PubChem BioAssay (NCI).
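Test compounds were applied to cells in 96-well plates for 48 hours at 5 doses. Here, GI50 denotes the concentration required for 50% inhibition of growth. TGI is the concentration that stops growth completely.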

How the values were obtained:
Experiment in all cases: NCI anticancer screen, dose series, 48 h; in the data active = GI50 below about 0.43 µM; inactive = the rest
A498 renal = tested on: A498 renal
A549 NSCLC = tested on: A549 NSCLC
ACHN renal = tested on: ACHN renal
BT-549 breast = tested on: BT-549 breast
CAKI-1 renal = tested on: CAKI-1 renal
CCRF-CEM leukemia = tested on: CCRF-CEM leukemia
COLO 205 colon = tested on: COLO 205 colon
DU-145 prostate = tested on: DU-145 prostate
EKVX NSCLC = tested on: EKVX NSCLC
HCT-116 colon = tested on: HCT-116 colon
HCT-15 colon = tested on: HCT-15 colon
HL-60(TB) leukemia = tested on: HL-60(TB) leukemia
HOP-62 NSCLC = tested on: HOP-62 NSCLC
HOP-92 NSCLC = tested on: HOP-92 NSCLC
HS 578T breast = tested on: HS 578T breast
HT29 colon = tested on: HT29 colon
IGROV1 ovarian = tested on: IGROV1 ovarian
K-562 leukemia = tested on: K-562 leukemia
KM12 colon = tested on: KM12 colon
LOX IMVI melanoma = tested on: LOX IMVI melanoma
MALME-3M melanoma = tested on: MALME-3M melanoma
MCF7 breast = tested on: MCF7 breast
MDA-MB-231 breast = tested on: MDA-MB-231 breast
MDA-MB-435 = tested on: MDA-MB-435
MOLT-4 leukemia = tested on: MOLT-4 leukemia
NCI-H226 lung = tested on: NCI-H226 lung
NCI-H23 lung = tested on: NCI-H23 lung
NCI-H460 lung = tested on: NCI-H460 lung
NCI-H522 lung = tested on: NCI-H522 lung
NCI/ADR-RES ovarian = tested on: NCI/ADR-RES ovarian
OVCAR-3 ovarian = tested on: OVCAR-3 ovarian
OVCAR-4 ovarian = tested on: OVCAR-4 ovarian
OVCAR-5 ovarian = tested on: OVCAR-5 ovarian
OVCAR-8 ovarian = tested on: OVCAR-8 ovarian
PC-3 prostate = tested on: PC-3 prostate
RPMI-8226 leukemia = tested on: RPMI-8226 leukemia
RXF 393 renal = tested on: RXF 393 renal
SF-268 CNS = tested on: SF-268 CNS
SF-295 CNS = tested on: SF-295 CNS
SF-539 CNS = tested on: SF-539 CNS
SK-MEL-2 melanoma = tested on: SK-MEL-2 melanoma
SK-MEL-28 melanoma = tested on: SK-MEL-28 melanoma
SK-MEL-5 melanoma = tested on: SK-MEL-5 melanoma
SK-OV-3 ovarian = tested on: SK-OV-3 ovarian
SN12C renal = tested on: SN12C renal
SNB-19 CNS = tested on: SNB-19 CNS
SNB-75 CNS = tested on: SNB-75 CNS
SR leukemia = tested on: SR leukemia
SW-620 colon = tested on: SW-620 colon
T-47D breast = tested on: T-47D breast
TK-10 renal = tested on: TK-10 renal
U251 CNS = tested on: U251 CNS
UACC-257 melanoma = tested on: UACC-257 melanoma
UACC-62 melanoma = tested on: UACC-62 melanoma
UO-31 renal = tested on: UO-31 renal

Oc1ccccc1/C=N/c1nc(-c2ccccc2)cs1
68 µM: TGI (K-562 leukemia)
74.7 µM: TGI (MOLT-4 leukemia)
inactive: GI50 (A498 renal) 77 µM | GI50 (A549 NSCLC) > 100 µM | GI50 (ACHN renal) 32.2 µM | GI50 (BT-549 breast) 59.5 µM | GI50 (CAKI-1 renal) 22.5 µM | GI50 (CCRF-CEM leukemia) 19.7 µM | GI50 (COLO 205 colon) 57.7 µM | GI50 (DU-145 prostate) 77.5 µM | GI50 (EKVX NSCLC) > 100 µM | GI50 (HCT-116 colon) 12.4 µM | GI50 (HCT-15 colon) 29.4 µM | GI50 (HL-60(TB) leukemia) 36 µM | GI50 (HOP-62 NSCLC) > 100 µM | GI50 (HOP-92 NSCLC) 8.22 µM | GI50 (HS 578T breast) 39 µM | GI50 (HT29 colon) 58.2 µM | GI50 (IGROV1 ovarian) > 100 µM | GI50 (K-562 leukemia) 19.6 µM | GI50 (KM12 colon) 51 µM | GI50 (LOX IMVI melanoma) 17.6 µM | GI50 (MALME-3M melanoma) 47.2 µM | GI50 (MCF7 breast) 14.1 µM | GI50 (MDA-MB-231 breast) 20 µM | GI50 (MDA-MB-435) 29.7 µM | GI50 (MOLT-4 leukemia) 25.4 µM | GI50 (NCI-H226 lung) 35.1 µM | GI50 (NCI-H23 lung) 18.4 µM | GI50 (NCI-H460 lung) > 100 µM | GI50 (NCI-H522 lung) 25.4 µM | GI50 (NCI/ADR-RES ovarian) > 100 µM | GI50 (OVCAR-3 ovarian) 30 µM | GI50 (OVCAR-4 ovarian) 33.7 µM | GI50 (OVCAR-5 ovarian) 32.2 µM | GI50 (OVCAR-8 ovarian) 42.9 µM | GI50 (PC-3 prostate) 53.7 µM | GI50 (RPMI-8226 leukemia) 27.5 µM | GI50 (RXF 393 renal) 10.4 µM | GI50 (SF-268 CNS) 81.1 µM | GI50 (SF-295 CNS) > 100 µM | GI50 (SF-539 CNS) 27.5 µM | GI50 (SK-MEL-2 melanoma) > 100 µM | GI50 (SK-MEL-28 melanoma) > 100 µM | GI50 (SK-MEL-5 melanoma) 47.6 µM | GI50 (SK-OV-3 ovarian) > 100 µM | GI50 (SN12C renal) 30.9 µM | GI50 (SNB-19 CNS) > 100 µM | GI50 (SNB-75 CNS) > 100 µM | GI50 (SR leukemia) 24.3 µM | GI50 (SW-620 colon) 14 µM | GI50 (T-47D breast) > 100 µM | GI50 (TK-10 renal) 33 µM | GI50 (U251 CNS) 28.5 µM | GI50 (UACC-257 melanoma) 44.3 µM | GI50 (UACC-62 melanoma) 34.5 µM | GI50 (UO-31 renal) 44.7 µM
46.9 µM: TGI (LOX IMVI melanoma)
40 µM: TGI (SW-620 colon)
32.6 µM: TGI (RXF 393 renal)
34.4 µM: TGI (HCT-116 colon)
62.6 µM: TGI (CAKI-1 renal) | TGI (NCI-H522 lung)
94.3 µM: TGI (SF-539 CNS)
79.5 µM: TGI (SR leukemia)
65 µM: TGI (CCRF-CEM leukemia)
40.8 µM: TGI (MCF7 breast)
> 100 µM: TGI (A498 renal) | TGI (A549 NSCLC) | TGI (ACHN renal) | TGI (BT-549 breast) | TGI (COLO 205 colon) | TGI (DU-145 prostate) | TGI (EKVX NSCLC) | TGI (HCT-15 colon) | TGI (HL-60(TB) leukemia) | TGI (HOP-62 NSCLC) | TGI (HOP-92 NSCLC) | TGI (HS 578T breast) | TGI (HT29 colon) | TGI (IGROV1 ovarian) | TGI (KM12 colon) | TGI (MALME-3M melanoma) | TGI (MDA-MB-231 breast) | TGI (MDA-MB-435) | TGI (NCI-H226 lung) | TGI (NCI-H460 lung) | TGI (NCI/ADR-RES ovarian) | TGI (OVCAR-3 ovarian) | TGI (OVCAR-4 ovarian) | TGI (OVCAR-5 ovarian) | TGI (OVCAR-8 ovarian) | TGI (PC-3 prostate) | TGI (RPMI-8226 leukemia) | TGI (SF-268 CNS) | TGI (SF-295 CNS) | TGI (SK-MEL-2 melanoma) | TGI (SK-MEL-28 melanoma) | TGI (SK-MEL-5 melanoma) | TGI (SK-OV-3 ovarian) | TGI (SN12C renal) | TGI (SNB-19 CNS) | TGI (SNB-75 CNS) | TGI (T-47D breast) | TGI (TK-10 renal) | TGI (U251 CNS) | TGI (UACC-257 melanoma) | TGI (UACC-62 melanoma) | TGI (UO-31 renal)
41.8 µM: TGI (NCI-H23 lung)
